Data taken from ChEMBL document CHEMBL1201862, “PubChem BioAssay data set” (2004).
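Results reflect a 48-hour exposure of cells in 96-well plates to compound at five concentrations. GI50: concentration for 50% inhibition of growth.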 The source made the active and inactive calls. Rule as the data show it: active = GI50 up to about 1.1 µM and inactive = higher.

What was measured:
Assay in all cases: NCI tumour cell line growth inhibition, 48 h
[1] = tested on: OVCAR-3
[2] = tested on: ACHN
[3] = tested on: NCI-H522
[4] = tested on: Hs-578T
[5] = tested on: PC-3
[6] = tested on: HCT-116
[7] = tested on: CCRF-CEM
[8] = tested on: HT-29
[9] = tested on: 786-0
[10] = tested on: LOX IMVI
[11] = tested on: T47D
[12] = tested on: IGROV-1
[13] = tested on: SK-OV-3
[14] = tested on: U-251
[15] = tested on: COLO 205
[16] = tested on: SF-539
[17] = tested on: UACC-62
[18] = tested on: MDA-MB-231
[19] = tested on: HOP-62
[20] = tested on: HCC 2998
[21] = tested on: SR
[22] = tested on: MOLT-4
[23] = tested on: Malme-3M
[24] = tested on: TK-10
[25] = tested on: MCF7
[26] = tested on: HL-60
[27] = tested on: A549
[28] = tested on: KM12
[29] = tested on: DU-145
[30] = tested on: MDA-MB-435
[31] = tested on: OVCAR-8
[32] = tested on: CAKI-1
[33] = tested on: SNB-19
[34] = tested on: K562
[35] = tested on: SNB-75
[36] = tested on: UACC-257
[37] = tested on: SK-MEL-5
[38] = tested on: SN12C
[39] = tested on: SK-MEL-28
[40] = tested on: RPMI-8226
[41] = tested on: HCT-15
[42] = tested on: OVCAR-4
[43] = tested on: SF-268
[44] = tested on: NCI/ADR-RES
[45] = tested on: NCI-H23
[46] = tested on: M14
[47] = tested on: SF-295
[48] = tested on: BT-549
[49] = tested on: SW-620
[50] = tested on: HOP-92
[51] = tested on: MDA-N
[52] = tested on: NCI-H226
[53] = tested on: RXF 393
[54] = tested on: NCI-H460
[55] = tested on: UO-31
[56] = tested on: SK-MEL-2
[57] = tested on: A498
[58] = tested on: OVCAR-5
[59] = tested on: EKVX

COc1ccc2c(c1)CCC1=C/C(=N\NC(N)=O)CCC12C (configuration not stated)
GI50 [1]: > 10 µM (inactive) | GI50 [2]: > 10 µM (inactive) | GI50 [3]: > 10 µM (inactive) | GI50 [4]: 7.1 µM (inactive) | GI50 [5]: > 10 µM (inactive) | GI50 [6]: > 10 µM (inactive) | GI50 [7]: > 10 µM (inactive) | GI50 [8]: > 10 µM (inactive) | GI50 [9]: > 10 µM (inactive) | GI50 [10]: > 10 µM (inactive) | GI50 [11]: > 10 µM (inactive) | GI50 [12]: > 10 µM (inactive) | GI50 [13]: > 10 µM (inactive) | GI50 [14]: > 10 µM (inactive) | GI50 [15]: > 10 µM (inactive) | GI50 [16]: > 10 µM (inactive) | GI50 [17]: 6.41 µM (inactive) | GI50 [18]: > 10 µM (inactive) | GI50 [19]: > 10 µM (inactive) | GI50 [20]: > 10 µM (inactive) | GI50 [21]: > 10 µM (inactive) | GI50 [22]: > 10 µM (inactive) | GI50 [23]: > 10 µM (inactive) | GI50 [24]: > 10 µM (inactive) | GI50 [25]: > 10 µM (inactive) | GI50 [26]: 9.62 µM (inactive) | GI50 [27]: > 10 µM (inactive) | GI50 [28]: > 10 µM (inactive) | GI50 [29]: > 10 µM (inactive) | GI50 [30]: 5.24 µM (inactive) | GI50 [31]: > 10 µM (inactive) | GI50 [32]: > 10 µM (inactive) | GI50 [33]: > 10 µM (inactive) | GI50 [34]: > 10 µM (inactive) | GI50 [35]: > 10 µM (inactive) | GI50 [36]: > 10 µM (inactive) | GI50 [37]: > 10 µM (inactive) | GI50 [38]: > 10 µM (inactive) | GI50 [39]: > 10 µM (inactive) | GI50 [40]: > 10 µM (inactive) | GI50 [41]: > 10 µM | GI50 [42]: > 10 µM (inactive) | GI50 [43]: > 10 µM (inactive) | GI50 [44]: > 10 µM (inactive) | GI50 [45]: > 10 µM (inactive) | GI50 [46]: > 10 µM (inactive) | GI50 [47]: > 10 µM (inactive) | GI50 [48]: > 10 µM (inactive) | GI50 [49]: > 10 µM (inactive) | GI50 [50]: > 10 µM (inactive) | GI50 [51]: > 10 µM (inactive)

O=C(CCCN1CCC2(CC1)CC(=O)N(N1CCOCC1)C2=O)c1ccc(F)cc1
GI50 [1]: > 100 µM (inactive) | GI50 [2]: > 100 µM (inactive) | GI50 [3]: > 100 µM (inactive) | GI50 [4]: > 100 µM (inactive) | GI50 [52]: 99.3 µM (inactive) | GI50 [5]: > 100 µM (inactive) | GI50 [6]: > 100 µM (inactive) | GI50 [7]: > 100 µM (inactive) | GI50 [8]: > 100 µM (inactive) | GI50 [9]: > 100 µM (inactive) | GI50 [10]: > 100 µM (inactive) | GI50 [11]: > 100 µM (inactive) | GI50 [12]: > 100 µM (inactive) | GI50 [13]: > 100 µM (inactive) | GI50 [14]: > 100 µM (inactive) | GI50 [15]: > 100 µM (inactive) | GI50 [16]: > 100 µM (inactive) | GI50 [17]: > 100 µM (inactive) | GI50 [18]: > 100 µM (inactive) | GI50 [53]: > 100 µM (inactive) | GI50 [19]: > 100 µM (inactive) | GI50 [54]: > 100 µM (inactive) | GI50 [22]: > 100 µM (inactive) | GI50 [23]: > 100 µM (inactive) | GI50 [24]: > 100 µM (inactive) | GI50 [55]: > 100 µM (inactive) | GI50 [25]: > 100 µM (inactive) | GI50 [56]: > 100 µM (inactive) | GI50 [26]: > 100 µM (inactive) | GI50 [27]: > 100 µM (inactive) | GI50 [28]: > 100 µM (inactive) | GI50 [29]: > 100 µM (inactive) | GI50 [30]: > 100 µM (inactive) | GI50 [57]: > 100 µM (inactive) | GI50 [31]: > 100 µM (inactive) | GI50 [32]: > 100 µM (inactive) | GI50 [33]: > 100 µM (inactive) | GI50 [34]: > 100 µM (inactive) | GI50 [35]: > 100 µM (inactive) | GI50 [36]: > 100 µM (inactive) | GI50 [37]: > 100 µM (inactive) | GI50 [38]: > 100 µM (inactive) | GI50 [39]: > 100 µM (inactive) | GI50 [40]: > 100 µM (inactive) | GI50 [41]: > 100 µM | GI50 [58]: > 100 µM (inactive) | GI50 [43]: > 100 µM (inactive) | GI50 [44]: > 100 µM (inactive) | GI50 [45]: > 100 µM (inactive) | GI50 [46]: > 100 µM (inactive) | GI50 [47]: > 100 µM (inactive) | GI50 [48]: > 100 µM (inactive) | GI50 [49]: > 100 µM (inactive) | GI50 [51]: > 100 µM (inactive)

NS(=O)(=O)c1ccc(C(=O)O)cc1 [CARZENIDE]
GI50 [1]: > 100 µM (inactive) | GI50 [2]: > 100 µM (inactive) | GI50 [3]: > 100 µM (inactive) | GI50 [4]: > 100 µM (inactive) | GI50 [5]: > 100 µM (inactive) | GI50 [6]: > 100 µM (inactive) | GI50 [7]: > 100 µM (inactive) | GI50 [8]: > 100 µM (inactive) | GI50 [9]: > 100 µM (inactive) | GI50 [10]: > 100 µM (inactive) | GI50 [11]: > 100 µM (inactive) | GI50 [12]: > 100 µM (inactive) | GI50 [13]: > 100 µM (inactive) | GI50 [14]: > 100 µM (inactive) | GI50 [15]: > 100 µM (inactive) | GI50 [17]: > 100 µM (inactive) | GI50 [18]: > 100 µM (inactive) | GI50 [53]: > 100 µM (inactive) | GI50 [19]: > 100 µM (inactive) | GI50 [22]: > 100 µM (inactive) | GI50 [23]: > 100 µM (inactive) | GI50 [24]: > 100 µM (inactive) | GI50 [55]: > 100 µM (inactive) | GI50 [25]: > 100 µM (inactive) | GI50 [56]: > 100 µM (inactive) | GI50 [26]: > 100 µM (inactive) | GI50 [27]: > 100 µM (inactive) | GI50 [28]: > 100 µM (inactive) | GI50 [29]: > 100 µM (inactive) | GI50 [30]: > 100 µM (inactive) | GI50 [57]: > 100 µM (inactive) | GI50 [31]: > 100 µM (inactive) | GI50 [32]: > 100 µM (inactive) | GI50 [33]: > 100 µM (inactive) | GI50 [34]: > 100 µM (inactive) | GI50 [59]: > 100 µM (inactive) | GI50 [37]: > 100 µM (inactive) | GI50 [38]: > 100 µM (inactive) | GI50 [39]: > 100 µM (inactive) | GI50 [40]: > 100 µM (inactive) | GI50 [41]: > 100 µM | GI50 [42]: > 100 µM (inactive) | GI50 [58]: > 100 µM (inactive) | GI50 [43]: > 100 µM (inactive) | GI50 [44]: > 100 µM (inactive) | GI50 [45]: > 100 µM (inactive) | GI50 [46]: > 100 µM (inactive) | GI50 [47]: > 100 µM (inactive) | GI50 [48]: > 100 µM (inactive) | GI50 [49]: > 100 µM (inactive) | GI50 [50]: 97.5 µM (inactive) | GI50 [51]: > 100 µM (inactive)
